Reference: patent US8324161B2, “Leukotriene B4 binding soluble lipocalin receptor from ixodes ricinus” (Universite Libre de Bruxelles, priority 2007, dated 2012)

Key:
LTB4-LIR polypeptide = assay: inhibition by eicosanoids of [3H]LTB4 binding to LTB4-LIR polypeptide; parameters: species or system Ixodes ricinus; conditions: for inhibition of 1 nM [3H]LTB4 binding to LTB4-LIR polypeptide: eicosanoid at a concentration of 10 μM, FIG. 4
Method: (§1) The polypeptide according to the invention was therefore tested for its ability to bind specifically leukotriene B4. The affinity-purified LTB4-LIR polypeptide was tested in binding assays according to a previously described method (Warlow, R. S., and Bernard, C. C. A. (1987). Solubilization and characterization of moderate and high affinity histamine binding sites on human blood mononuclear cells. Mol. Immunol. 24, 27-37).
(§2) The inhibition by various eicosanoids of [3H]LTB4 binding to LTB4-LIR polypeptide was also examined. […] Next, various concentrations of LTA4, LTB4, LTC4, LTD4, HETE, HPETE, and LXA4 was tested in the competition with [3H]LTB4 binding to LTB4-LIR polypeptide.

[1] = saturation binding of [3H]LTB4 to affinity-purified LTB4-LIR polypeptide
Method: as §1, §2

neutrophils = assay: transendothelial migration of neutrophils stimulated by LTB4 through Ea.hy926 endothelial cell layer; type: cell-based, human; conditions: 2 hours at 37° C.; neutrophils from three volunteers, in triplicate; FIG. 6
Method: The principal LTB4 function is the chemo-attraction of neutrophils to the sub-endothelial spaces of an inflammation site. One step of this process is the diapedesis of the neutrophils through the endothelial cells layer. The chemo-attractant effect of LTB4-LIR6 was tested by using a model of transendothelial migration of neutrophils.
Ea.hy926 cells, an endothelial cell line derived from the human umbilical vein, were used. These cells closely resemble HUVEC and maintain several characteristics of differentiated endothelium. The cells were allowed to reach confluence in chamber containing DMEM (Cambrex, Vervier, Belgium), supplemented with 10% Fetal Calf Serum, 2 mM L-Glutamine, 100 U/ml penicillin, 100 μg/ml streptomycin and HAT ([…], 0.4 μM aminopterin, 16 μM thymidine). […]
In the transendothelial assay, the protocol described by Nohgawa et al. was used (Nohgawa M., Sasada M., Maeda A., Asagoe K., Harakawa N., Takano K., Yamamoto K., Okuma M. Leukotriene B4-activated human endothelial cells promote transendothelial neutrophil migration. J Leuc. Biol, 1997 (62): 203-209). […] After 2 hours at 37° C., the upper chambers were removed and cells in lower chambers were counted. […]

CCCCC/C=C\C[C@@H](O)/C=C/C=C\C/C=C\CCCC(=O)O [12(R)-HETE]
inhibition of 1 nM [3H]LTB4 binding to LTB4-LIR polypeptide (LTB4-LIR polypeptide): significant competitions

CCCCC/C=C\C[C@@H](O)/C=C/C=C/C=C\[C@@H](O)CCCC(=O)O [LTB4, leukotriene B4]
inhibition of 1 nM [3H]LTB4 binding to LTB4-LIR polypeptide (LTB4-LIR polypeptide): significant competitions | competition with [3H]LTB4 binding to LTB4-LIR polypeptide at various concentrations (LTB4-LIR polypeptide; various concentrations, FIG. 5): dose-dependent inhibition

CCCCC/C=C\C\C=C/C=C/C=C/[C@@H](SC[C@H](N)C(=O)NCC(=O)O)[C@@H](O)CCCC(=O)O [LTD4]
inhibition of 1 nM [3H]LTB4 binding to LTB4-LIR polypeptide (LTB4-LIR polypeptide): significant competitions

CCCCC/C=C\C\C=C/C=C/C=C/[C@@H](SC[C@H](N)C(=O)O)[C@@H](O)CCCC(=O)O [LTE4]
inhibition of 1 nM [3H]LTB4 binding to LTB4-LIR polypeptide (LTB4-LIR polypeptide): significant competitions

B1: LTB4-LIR polypeptide: Leukotriene B4 binding Lipocalin from Ixodes ricinus, amino acid sequence SEQ ID NO: 2, expressed with V5-6×His tag in a baculovirus system (protein, listed as Ixodes ricinus)
chain: MLRIAVVAALCCFGTGTVSRFQQNATERHYQELNSNLSKYQDAWKSNTENAEYVLAYRTFQDIERTRIRRCVSATLRYKNKKNRTTVHRLRYYNTRDRKWEGHSVLTRFNATPGYTVPNLMLMSSYHNESDEGRLYWTLYSQYGSCNIVRVERNGGCELWVRKGLQDYISSCCWFIYKSYCGNENYQIYNTTYCKRKGPE
modifications: V5-6×His tag
Kd ([1]; FIG. 3, read-out: Kd value of specific and saturable binding for [3H]LTB4): 0.4 nM | Kd lower than that for human BLT1 membrane receptor ([1]; compared with literature Kd of human BLT1 (Yokomizo et al. 2001)): about 5 fold | Kd lower than that for human BLT2 membrane receptor ([1]; compared with literature Kd of human BLT2 (Yokomizo et al. 2001)): about 60 fold | effect on the transendothelial migration of neutrophils stimulated by LTB4 (neutrophils): significant dose-response effect
